In paper PMC8820820, “Feasibility and safety of targeting mitochondria for cancer therapy – preclinical characterization of gamitrinib, a first-in-class, mitochondriaL-targeted small molecule Hsp90 inhibitor” (Cancer Biology & Therapy, 2022):
“And” between values parts separate entries of the source, which are not always exact repeats. Equal values may be shown once. “Also recorded” adds a separate entry of the source.

How the values were obtained:
[1] = target: T1, CYP1A2 (Homo sapiens, UniProt P05177); assay: CYP inhibition in liver microsomes; format: in vitro ADME
T1 construct: tissue Bioreclamation IVT; host or cells: pooled human liver microsomes
T1 sequence (P05177 1-516): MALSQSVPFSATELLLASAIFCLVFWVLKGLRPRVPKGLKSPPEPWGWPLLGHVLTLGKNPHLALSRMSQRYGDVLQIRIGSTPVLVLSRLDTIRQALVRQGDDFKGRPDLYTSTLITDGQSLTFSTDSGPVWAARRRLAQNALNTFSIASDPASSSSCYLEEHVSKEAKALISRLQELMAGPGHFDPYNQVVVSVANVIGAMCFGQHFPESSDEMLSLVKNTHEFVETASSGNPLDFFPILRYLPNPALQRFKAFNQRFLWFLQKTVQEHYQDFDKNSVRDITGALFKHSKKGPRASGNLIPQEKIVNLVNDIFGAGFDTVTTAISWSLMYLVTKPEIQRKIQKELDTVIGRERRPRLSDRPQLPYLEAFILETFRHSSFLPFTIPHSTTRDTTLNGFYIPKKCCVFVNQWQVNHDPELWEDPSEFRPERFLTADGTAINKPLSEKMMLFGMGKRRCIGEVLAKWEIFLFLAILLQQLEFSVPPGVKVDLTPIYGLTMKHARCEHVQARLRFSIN
Excerpt: CYP inhibition in liver microsomes.

[2] = Toxicokinetics in rats, twice weekly IV for 29 d; format: in vivo, Sprague-Dawley rats
Procedure: Ninety-six male and female Sprague-Dawley rats (6–7 weeks old) were received from Charles River Laboratories (Raleigh, NC) catheterized via a femoral vein prior to arrival. Animals were acclimated in individual stainless-steel cages with access to water and Certified Rodent Diet #2014 C (Envigo RMS) ad libitum for 6 d prior to study initiation. Environmental controls were set to maintain a temperature range of 20 to 26°C, a relative humidity range of 30 to 70%, eight or greater air changes/h, and a 12-h light/dark cycle. Animals were infused with sterile isotonic (0.9%) saline for a minimum of 4 d (0.20 mL/h for males or 0.15 mL/h for females) during the predose phase. At initiation of dosing, animals were 8 to 9 weeks old, and body weights ranged from 283 to 341 g for males and 188 to 238 g for females. Gamitrinib formulated as indicated above was administered by IV infusion on d 4, 8, 11, 15, 18, 22, 25, and 29 of the dosing phase at 1, 10, 25 mg/kg/dose and dose volume of 5 mL/kg. The vehicle control administered with the same schedule contained 2.5% DMSO, 0.125% polysorbate 80, 0.031% lecithin, 1.25% sucrose and 4.375% dextrose. Animals were checked twice daily throughout the duration of the study for mortality, abnormalities, and signs of pain or distress. Detailed observations were conducted for each animal up to two times during the predose phase and for each toxicity animal prior to dosing on d 1, 8, 15, 22, and 29 of the dosing phase and on d 1, 7, and 14 of the recovery phase. Blood samples were collected on d. 1, 4 and 29 of the dosing phase 5 min, 1 h and 24 h post-dose, maintained on chilled cryoracks and centrifuged within 1 h of collection. Tissue samples harvested from each animal were embedded in paraffin, sectioned, and slides were prepared and stained with hematoxylin and eosin.

[3] = Gamitrinib pharmacokinetics in rat plasma, single IV dose; format: in vivo, Sprague-Dawley rats
Procedure: Sprague-Dawley rats (n = 3) were administered with a single intravenous (IV) dose of 1 mL Gamitrinib (5 mg/kg) formulated as described above without added microfluidization. Blood samples were collected via lateral tail vein using K2EDTA as an anticoagulant at 0.083, 0.25, 0.5, 1, 2, 4, and 24 h post-dose, chilled on ice, and centrifuged at 5000 rpm for 10 min. Aliquots (0.2 mL) of each plasma sample were stored frozen at −20°C. For analysis, 50 µL aliquots of the study samples were mixed with 50 µL of ACN/H2O (50:50), extracted by protein precipitation using ACN containing the internal standard Gamitrinib-d15 (100 ng/mL), and the aliquots of the supernatant were mixed with deionized water for Gamitrinib determination. Batch samples under analysis included a calibration curve, a matrix blank (blank rat plasma), a reagent blank, a control zero (blank rat plasma spiked with internal standard), and duplicate QC samples at three concentration levels (low, medium, and high) in addition to the study samples. Within each batch, the study samples were bracketed by calibration standards or QC samples. The lowest calibration standard served to evaluate system suitability at the beginning of each batch. […] Overall, the concentration of Gamitrinib was measured in 21 rat plasma samples in 1 analytical batch using LC-MS/MS data acquisition on a Shimadzu Nexera LC system coupled with an AB Sciex Triple Quad 5500 mass spectrometer. Chromatograms were integrated using Analyst 1.6.2 software. A weighted (1/x^2, x = concentration) linear regression was used to generate the calibration curve for Gamitrinib. […] The mean, standard deviation, precision, accuracy, and assay variability were calculated using Microsoft Excel.

[4] = target: CYP2C9 (Homo sapiens, UniProt P11712); settings: microsomes
Sequence of CYP2C9 (P11712 whole entry): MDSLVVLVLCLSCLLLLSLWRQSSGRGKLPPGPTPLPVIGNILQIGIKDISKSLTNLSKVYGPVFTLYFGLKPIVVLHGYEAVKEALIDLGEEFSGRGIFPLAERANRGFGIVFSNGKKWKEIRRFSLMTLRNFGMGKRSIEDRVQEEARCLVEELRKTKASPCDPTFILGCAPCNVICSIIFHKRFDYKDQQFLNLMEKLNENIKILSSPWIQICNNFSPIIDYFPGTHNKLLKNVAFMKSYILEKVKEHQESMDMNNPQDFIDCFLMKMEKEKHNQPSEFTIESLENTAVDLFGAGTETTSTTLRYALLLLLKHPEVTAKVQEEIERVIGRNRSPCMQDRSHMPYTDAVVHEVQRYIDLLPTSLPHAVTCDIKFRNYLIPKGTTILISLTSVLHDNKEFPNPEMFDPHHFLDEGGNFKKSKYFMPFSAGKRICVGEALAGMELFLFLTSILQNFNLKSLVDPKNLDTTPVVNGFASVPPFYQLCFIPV

In the case of `COC1C=CC=C(C)C(=O)NC2=CC(=O)C(NCCCCCC[P+](c3ccccc3)(c3ccccc3)c3ccccc3)=C(CC(C)CC(OC)C(O)C(C)C=C(C)C1OC(N)=O)C2=O.F[P-](F)(F)(F)(F)F` (stereo not drawn) [Gamitrinib], the IC50 [1] is reported as 32.9 µM, the drug accumulation ([2]; Cmax and AUC0–24 d 4 vs d 29) is reported as “no drug accumulation after multiple doses” and the “AUC0–24” value ([2]; rat, in vivo, 1 mg/kg) is reported as 174 ng·h/mL. The “AUC0–24” value ([2]; rat, in vivo, 10 mg/kg) was 1300 ng·h/mL, the CLSS ([2]; rat, in vivo, iv, 25 mg/kg) was 84.83 to 131.33 mL/min/kg and the VSS ([2]; rat, in vivo, iv, 25 mg/kg) was 12.2 to 90.0 L/kg. For the same molecule, the AUCINF ([3]; 5 mg/kg IV, Mean (n = 3)) was 976.002 ng·h/mL, the “AUClast (AUC0-t)” value ([3]; 5 mg/kg IV, Mean (n = 3)) was 783.1 ± 71.3 ng·h/mL and 783.199 ng·h/mL and the CL ([3]; 5 mg/kg IV, Mean (n = 3)) was 85.6 ± 5.8 mL/min/kg and 85.65 ± 5.85 mL/min/kg and 85.656 mL/min/kg. For the same molecule, the MRT ([3]; 5 mg/kg IV, Mean (n = 3)) was 5.492 h, the Vss ([3]; 5 mg/kg IV, Mean (n = 3)) was 65.471 L/kg and the Vz ([3]; 5 mg/kg IV, Mean (n = 3)) was 91.159 L/kg. For the same molecule, the t1/2 ([3]; 5 mg/kg IV, Mean (n = 3)) was 12.2 ± 1.55 h and 12.250 h, the AUCINF ([3]; 5 mg/kg IV, Rat 1) was 1051.752 ng·h/mL and the AUClast ([3]; 5 mg/kg IV, Rat 1) was 851.441 ng·h/mL. It also gave a CL ([3]; 5 mg/kg IV, Rat 1) of 79.233 mL/min/kg, a Cmax ([3]; 5 mg/kg IV, Rat 1) of 1153.712 ng/mL and an MRT ([3]; 5 mg/kg IV, Rat 1) of 5.539 h. The Vss ([3]; 5 mg/kg IV, Rat 1) was 58.230 L/kg, the Vz ([3]; 5 mg/kg IV, Rat 1) was 79.715 L/kg and the t1/2 ([3]; 5 mg/kg IV, Rat 1) was 11.623 h. The AUCINF ([3]; 5 mg/kg IV, Rat 2) was 957.472 ng·h/mL, the AUClast ([3]; 5 mg/kg IV, Rat 2) was 789.045 ng·h/mL and the CL ([3]; 5 mg/kg IV, Rat 2) was 87.035 mL/min/kg. It also gave a Cmax ([3]; 5 mg/kg IV, Rat 2) of 829.668 ng/mL, an MRT ([3]; 5 mg/kg IV, Rat 2) of 5.411 h and a Vss ([3]; 5 mg/kg IV, Rat 2) of 60.052 L/kg. For the same molecule, the Vz ([3]; 5 mg/kg IV, Rat 2) was 83.678 L/kg, the t1/2 ([3]; 5 mg/kg IV, Rat 2) was 11.107 h and the AUCINF ([3]; 5 mg/kg IV, Rat 3) was 918.784 ng·h/mL. For the same molecule, the AUClast ([3]; 5 mg/kg IV, Rat 3) was 709.112 ng·h/mL, the CL ([3]; 5 mg/kg IV, Rat 3) was 90.700 mL/min/kg and the Cmax ([3]; 5 mg/kg IV, Rat 3) was 1544.041 ng/mL. It also gave an MRT ([3]; 5 mg/kg IV, Rat 3) of 5.524 h, a Vss ([3]; 5 mg/kg IV, Rat 3) of 78.131 L/kg and a Vz ([3]; 5 mg/kg IV, Rat 3) of 110.085 L/kg. It also gave a t1/2 ([3]; 5 mg/kg IV, Rat 3) of 14.022 h, a Gamitrinib plasma concentration ([3]; 5 mg/kg IV, animal 1, 5 min) of 622.199 ng/mL and a Gamitrinib plasma concentration ([3]; 5 mg/kg IV, animal 1, 15 min) of 180.951 ng/mL. The Gamitrinib plasma concentration ([3]; 5 mg/kg IV, animal 1, 30 min) was 106.381 ng/mL, the Gamitrinib plasma concentration ([3]; 5 mg/kg IV, animal 1, 60 min) was 71.445 ng/mL and the Gamitrinib plasma concentration ([3]; 5 mg/kg IV, animal 1, 120 min) was 46.657 ng/mL. It also gave a Gamitrinib plasma concentration ([3]; 5 mg/kg IV, animal 1, 240 min) of 36.816 ng/mL, a Gamitrinib plasma concentration ([3]; 5 mg/kg IV, animal 1, 1440 min) of 11.946 ng/mL and a Gamitrinib plasma concentration ([3]; 5 mg/kg IV, animal 2, 5 min) of 526.229 ng/mL. For the same molecule, the Gamitrinib plasma concentration ([3]; 5 mg/kg IV, animal 2, 15 min) was 211.686 ng/mL, the Gamitrinib plasma concentration ([3]; 5 mg/kg IV, animal 2, 30 min) was 114.230 ng/mL and the Gamitrinib plasma concentration ([3]; 5 mg/kg IV, animal 2, 60 min) was 65.903 ng/mL. The Gamitrinib plasma concentration ([3]; 5 mg/kg IV, animal 2, 120 min) was 43.125 ng/mL, the Gamitrinib plasma concentration ([3]; 5 mg/kg IV, animal 2, 240 min) was 34.776 ng/mL and the Gamitrinib plasma concentration ([3]; 5 mg/kg IV, animal 2, 1440 min) was 10.511 ng/mL. The Gamitrinib plasma concentration ([3]; 5 mg/kg IV, animal 3, 5 min) was 674.432 ng/mL, the Gamitrinib plasma concentration ([3]; 5 mg/kg IV, animal 3, 15 min) was 128.663 ng/mL and the Gamitrinib plasma concentration ([3]; 5 mg/kg IV, animal 3, 30 min) was 67.204 ng/mL. It also gave a Gamitrinib plasma concentration ([3]; 5 mg/kg IV, animal 3, 60 min) of 55.991 ng/mL, a Gamitrinib plasma concentration ([3]; 5 mg/kg IV, animal 3, 120 min) of 29.914 ng/mL and a Gamitrinib plasma concentration ([3]; 5 mg/kg IV, animal 3, 240 min) of 28.905 ng/mL. The Gamitrinib plasma concentration ([3]; 5 mg/kg IV, animal 3, 1440 min) was 10.365 ng/mL, the “generation of metabolite 17-AG” value ([3]; rats, IV Gamitrinib 5 mg/kg, plasma) was “without generation of 17-AG; also recorded: did not generate detectable levels; also recorded: no generation of 17-AG” and the IC50 [4] was 1.1 µM.
